In patent EP1614683B1, “Indazole compounds and pharmaceutical compositions for inhibiting protein kinases, and methods for their use” (priority 1999, dated 2001):
Like-named read-outs stand apart in the source and are kept apart here.

What was measured:
[1] = biological target: T1, unphosphorylated VEGF-R2Δ50 (Homo sapiens, UniProt P35968, DEL940-989/E990V); conditions: Table 1
human FGF-R1 = human FGF-R1 (Homo sapiens, UniProt P11362, C488A/C584S/L457V); assay: FGF-R spectrophotometric assay; assay type: biochemical
Sequence of human FGF-R1 (P11362 456-766 L457V/C488A/C584S): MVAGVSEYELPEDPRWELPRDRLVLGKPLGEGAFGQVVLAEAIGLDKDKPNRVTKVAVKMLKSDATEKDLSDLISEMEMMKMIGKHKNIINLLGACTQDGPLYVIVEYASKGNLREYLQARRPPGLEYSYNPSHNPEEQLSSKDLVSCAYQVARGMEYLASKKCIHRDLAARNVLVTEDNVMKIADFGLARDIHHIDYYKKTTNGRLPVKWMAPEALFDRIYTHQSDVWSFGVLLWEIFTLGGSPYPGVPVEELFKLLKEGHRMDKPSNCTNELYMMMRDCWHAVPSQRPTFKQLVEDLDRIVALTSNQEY
Protocol: The spectrophotometric assay was carried out as described above for VEGF-R2, except for the following changes in concentration: FGF-R = 50 nM, ATP = 2 mM, and poly(E4Y1) =15 mM.

in vitro = in vitro ADME, human; conditions: human, microsomes, 2 h, 5 µM
In short: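 HLM diluted to 5 mg/mL in 100 mM KPO4, preincubated 10 min at 37 °C with NADPH-regenerating system. Compound (5 µM final) incubated at 37 °C in triplicate, sampled at 0 and 2 h into ice-cold acetonitrile, then LC-MS analysis.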

LCK tyrosine kinase = LCK tyrosine kinase (Homo sapiens, UniProt P06239, C224D/P223M); assay: LCK spectrophotometric assay; assay type: biochemical
Sequence of LCK tyrosine kinase (P06239 223-509 P223M/C224D): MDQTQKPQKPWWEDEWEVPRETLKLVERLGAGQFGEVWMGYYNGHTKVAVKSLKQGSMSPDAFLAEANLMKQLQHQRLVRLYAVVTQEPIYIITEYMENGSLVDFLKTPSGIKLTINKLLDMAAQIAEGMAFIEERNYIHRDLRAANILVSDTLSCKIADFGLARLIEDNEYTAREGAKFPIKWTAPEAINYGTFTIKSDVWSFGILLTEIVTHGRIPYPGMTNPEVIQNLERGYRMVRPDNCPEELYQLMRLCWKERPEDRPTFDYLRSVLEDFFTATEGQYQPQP
Protocol: The spectrophotometric assay was carried out as described above for VEGF-R2, except for the following changes in concentration: LCK = 60 nM, MgCl2 = 0 mM, poly(E4Y1) = 20 mM.

human CHK1 (FL-CHK1) = biological target: T2, human CHK1 (FL-CHK1) (Homo sapiens, UniProt O14757); assay: CHK1 coupled spectrophotometric assay; assay type: biochemical
T2 construct: C-terminally His-tagged full-length human CHK1 (FL-CHK1) was expressed using the baculovirus/insect cell system; made in house; host or cells: baculovirus/insect cell system
T2 sequence (O14757 1-476): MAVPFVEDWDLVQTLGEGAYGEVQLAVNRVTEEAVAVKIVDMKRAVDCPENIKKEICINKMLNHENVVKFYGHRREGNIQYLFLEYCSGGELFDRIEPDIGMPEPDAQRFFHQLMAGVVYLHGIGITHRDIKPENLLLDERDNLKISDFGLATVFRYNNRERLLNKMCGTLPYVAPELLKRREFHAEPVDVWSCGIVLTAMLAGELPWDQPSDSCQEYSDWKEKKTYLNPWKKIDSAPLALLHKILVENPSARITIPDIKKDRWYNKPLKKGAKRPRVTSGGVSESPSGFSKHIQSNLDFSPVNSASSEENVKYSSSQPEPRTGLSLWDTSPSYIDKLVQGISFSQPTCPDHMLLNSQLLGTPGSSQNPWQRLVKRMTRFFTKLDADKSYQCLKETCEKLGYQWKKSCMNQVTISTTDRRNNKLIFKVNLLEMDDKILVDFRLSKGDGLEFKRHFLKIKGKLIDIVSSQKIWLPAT
In short: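 His-tagged full-length human CHK1 from baculovirus/insect cells, 10 nM, phosphorylating Syntide-2. ADP formation coupled via PK/LDH with PEP to NADH oxidation, followed as absorbance decrease at 340 nm. Ki from initial rates at varying compound concentrations.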

HCT-116 = HCT-116 cell assay (Table 2); assay type: cell-based; conditions: Homo sapiens
CDK4/Cyclin D3 complex [2] = biological target: T3, CDK4/Cyclin D3 complex (Homo sapiens, UniProt P11802)
T3 sequence (P11802 whole entry, the tested form may be a part): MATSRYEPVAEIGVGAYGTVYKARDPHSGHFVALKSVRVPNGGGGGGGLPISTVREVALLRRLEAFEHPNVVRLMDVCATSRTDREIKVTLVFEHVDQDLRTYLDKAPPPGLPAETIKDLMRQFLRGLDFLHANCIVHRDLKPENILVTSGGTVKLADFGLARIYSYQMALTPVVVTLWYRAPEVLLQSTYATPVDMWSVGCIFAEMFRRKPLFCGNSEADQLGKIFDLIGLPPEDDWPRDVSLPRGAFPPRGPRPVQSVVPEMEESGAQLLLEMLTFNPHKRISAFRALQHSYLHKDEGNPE
T3 sequence (P30281 whole entry partner, the tested form may be a part): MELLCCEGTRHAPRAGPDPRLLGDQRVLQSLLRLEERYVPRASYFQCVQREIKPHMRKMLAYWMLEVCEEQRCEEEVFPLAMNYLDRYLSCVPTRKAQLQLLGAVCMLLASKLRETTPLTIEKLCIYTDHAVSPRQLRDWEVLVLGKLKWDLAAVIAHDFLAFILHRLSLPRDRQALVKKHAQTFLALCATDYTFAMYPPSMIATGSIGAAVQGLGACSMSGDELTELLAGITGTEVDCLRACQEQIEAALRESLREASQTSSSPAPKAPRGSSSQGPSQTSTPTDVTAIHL

CDK2/Cyclin A complex = CDK2/Cyclin A complex (Homo sapiens, UniProt P24941); assay: CDK2/Cyclin A assay ([32P]ATP incorporation into Rb fragment); assay type: biochemical; conditions: Table 1; read-out: CDK2 * (Ki, cell in µM)
[3] = tested on: human umbilical vein endothelial cells (HUVEC); assay: HUVEC proliferation assay (VEGF-stimulated, MTT); assay type: cell-based; conditions: read-out: HUVEC IC50
[4] = biological target: T4, phosphorylated Tie-2 (aa 775-1122) (Homo sapiens, UniProt Q02763); assay: TIE-2 spectrophotometric assay; assay type: biochemical; conditions: read-out: % Inhibition Tie2-P, compound tested at 10 µM
T4 construct: 4 to 12 nM phosphorylated Tie-2 (aa 775-1122); made in house; host or cells: insect cells
T4 sequence (Q02763 775-1122): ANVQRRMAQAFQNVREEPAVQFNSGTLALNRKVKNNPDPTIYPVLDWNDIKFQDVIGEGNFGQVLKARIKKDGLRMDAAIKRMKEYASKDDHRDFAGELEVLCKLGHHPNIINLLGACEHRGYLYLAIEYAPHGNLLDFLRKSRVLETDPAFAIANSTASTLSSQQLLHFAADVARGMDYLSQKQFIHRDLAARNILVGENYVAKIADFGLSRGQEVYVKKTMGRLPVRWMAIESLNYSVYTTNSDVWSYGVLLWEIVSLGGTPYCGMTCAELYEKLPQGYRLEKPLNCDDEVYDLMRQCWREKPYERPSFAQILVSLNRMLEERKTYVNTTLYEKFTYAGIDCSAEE
In short: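 Human phosphorylated Tie-2 kinase activity was measured spectrophotometrically by coupling ADP formation, from phosphoryl transfer to poly(Glu4 Tyr), to NADH oxidation via pyruvate kinase and lactate dehydrogenase. Absorbance loss at 340 nm was read on a Beckman DU650. Reactions held 1 mM phosphoenolpyruvate, 0.24 mM NADH, 40 mM MgCl2, 5 mM DTT, 0.5 mM ATP, and 15 units/mL each of PK and LDH in 100 mM HEPES, pH 7.5.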

human FAK (FAKcd409) = biological target: T5, human FAK (FAKcd409) (Homo sapiens, UniProt Q05397, P410T); assay: FAK fluorescence polarization assay; assay type: biochemical; conditions: read-out: % Inhibition FAK, compound tested at 10 µM
T5 construct: comprises residues methionine 409 to glutamate 689; made in house; host or cells: baculovirus vector expression system (insect cells)
T5 sequence (Q05397 409-689 P410T): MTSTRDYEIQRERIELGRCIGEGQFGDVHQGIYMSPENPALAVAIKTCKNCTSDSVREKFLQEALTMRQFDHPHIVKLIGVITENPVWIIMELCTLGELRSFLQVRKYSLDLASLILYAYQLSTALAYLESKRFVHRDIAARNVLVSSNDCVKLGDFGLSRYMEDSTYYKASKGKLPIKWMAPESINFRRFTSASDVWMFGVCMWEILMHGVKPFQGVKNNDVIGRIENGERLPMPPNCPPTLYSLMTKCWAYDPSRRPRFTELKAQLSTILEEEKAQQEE
Protocol: FAK Construct for Assay. The catalytic domain of human FAK (FAKcd409) was expressed using the baculovirus vector expression system. […] The protein was purified using classical chromatography techniques.
FAK HTS utilized the fluorescence polarization assay provided by LJL Biosystems. The kinase reaction contained: 100mM Hepes pH 7.5, 10mM MgCl2, 1mM DTT, 1mM ATP, and 1mg/ml poly Glu-Tyr (4: 1). The reaction is initiated by the addition of 5nM FAKcd409. The reaction is terminated by the addition of EDTA followed by addition of fluor-labelled peptide and anti-phosphotyrosine antibody, both provided by LJL Biosystems. Inhibition results are read on a Analyst (LJL) detector.

[5] = Isomer stability under assay conditions; assay type: physicochemical; conditions: Z-isomer, isolated pure
Protocol: Reference Example 33(h) was prepared in the same reaction as Reference Example 33(d). […] Found: C (66.36), H (4.08), N (11.49), S (6.55).

[6] = biological target: T6, truncated catalytic subunit (gamma subunit) of phosphorylase kinase (amino acids 1-298) (Oryctolagus cuniculus, UniProt P00518); assay: Phosphorylase kinase assay; assay type: biochemical; conditions: 10 µM of compound; phosphoryl transfer from ATP to phosphorylase b
T6 construct: (gamma subunit) of phosphorylase kinase (amino acids 1-298); made in house
T6 sequence (P00518 2-299 limits assumed): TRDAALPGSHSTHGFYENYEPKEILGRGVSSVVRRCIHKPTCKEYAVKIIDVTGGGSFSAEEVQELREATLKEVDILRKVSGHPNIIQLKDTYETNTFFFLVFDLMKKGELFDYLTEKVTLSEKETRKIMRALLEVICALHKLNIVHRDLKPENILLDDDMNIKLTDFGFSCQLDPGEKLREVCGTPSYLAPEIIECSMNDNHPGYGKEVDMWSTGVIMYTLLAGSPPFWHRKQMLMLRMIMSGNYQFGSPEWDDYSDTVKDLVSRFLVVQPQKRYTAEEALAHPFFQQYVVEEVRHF
Protocol: In the assay, the purified catalytic subunit is used to phosphorylate phosphorylase b using radiolabled ATP. Briefly, 1.5 mg/ml of phosphorylase b is incubated with 10 nM phosphorylase kinase in 10 mM MgCl2, 50 mM Hepes pH 7.4, at 37 °C. […] The reaction was terminated and proteins were precipitated by the addition of TCA to 10% final concentration. […] The filter plate was then extensively washed with 20% TCA, and dried. Scintilation fluid was then added to the plate and incorporated radiolabel was counted on a Wallac microbeta counter.

CDK4/Cyclin D3 complex [7] = biological target: T3, CDK4/Cyclin D3 complex; assay: biochemical; conditions: read-out: CDK4* (% inhibition @ 5 µM)
[8] = biological target: T1, unphosphorylated VEGF-R2Δ50; assay: biochemical; conditions: read-out: FLVK* (% inhibition)
[9] = mouse, in vivo, pH 2.3
[10] = Table 1, compound concentration 1 µM
[11] = read-out: CDK4 * (Ki, cell in µM), Table 1
[12] = Table 1, compound concentration 1 µM, read-out: Lck-P* (% inhibition)

T1 sequence (P35968 with tags, fused parts or gaps DEL940-989/E990V limits assumed): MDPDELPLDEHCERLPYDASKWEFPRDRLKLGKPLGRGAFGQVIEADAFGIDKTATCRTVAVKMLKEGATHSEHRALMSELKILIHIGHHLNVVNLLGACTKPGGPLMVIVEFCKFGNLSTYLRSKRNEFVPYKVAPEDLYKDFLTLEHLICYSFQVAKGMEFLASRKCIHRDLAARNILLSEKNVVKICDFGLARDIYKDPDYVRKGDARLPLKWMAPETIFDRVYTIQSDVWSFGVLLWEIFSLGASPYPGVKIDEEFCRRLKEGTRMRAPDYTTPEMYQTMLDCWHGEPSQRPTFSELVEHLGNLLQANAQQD

In the case of `CCn1nc(C)cc1C(=O)Nc1cc(C(=O)c2ccc3c(/C=C/c4ccccn4)n[nH]c3c2)c(C)cc1C` [41(11)], the “FLVK ** (% inhibition)” value ([1]; compound concentration 50 nM) is reported as 57%, the Ki (human FGF-R1; Table 1, read-out: FGF-P* (Ki)) is reported as 11 nM and the “% remain (HLM, 2 h)” value (in vitro) is reported as 85%. The “Lck-P* (% inhibition)” value (LCK tyrosine kinase; [10]) was 18%.

With `CNC(=O)c1ccc2[nH]c(-c3n[nH]c4cc(-c5ccc(O)cc5OC)ccc34)nc2c1` [Reference Example 25(g), 3-(5-methylcarbamoyl-1H-benzoimidazol-2-yl)-6-(2-methoxy-4-hydroxyphenyl)-1H-indazole] the inhibition at 1 µM (human FGF-R1; read-out: FGF* (% inhibition)) was 82%, the inhibition at 1 µM (human CHK1 (FL-CHK1); read-out: CHK1* (% inhibition)) was 21% and the IC50 (HCT-116) was 2000 nM. It also gave an inhibition at 1 µM (LCK tyrosine kinase; read-out: Lck* (% inhibition)) of 76%.

Compound `CCOCc1cc(O)c(OC)cc1-c1ccc2c(-c3nc4ccccc4[nH]3)n[nH]c2c1` [Reference Example 24(l), 3-1H-Benzoimidazol-2-yl-6-(2-(ethoxymethyl)-5-methoxy-4-hydroxy-phenyl)-1H-indazole] has an inhibition at 20 µM (human CHK1 (FL-CHK1); read-out: CHK1* (% inhibition @ 20 µM)) of 62%, a Ki (CDK4/Cyclin D3 complex [2]; read-out: CDK4* (Ki), Table 2) of 0.013 µM and a Ki (CDK4/Cyclin D3 complex [2]; read-out: CDK4* (Ki), Table 2, listed as 24(1)) of 0.071 µM.

`Oc1ccc(-c2ccc3c(-c4nc5ccccc5[nH]4)n[nH]c3c2)c(Oc2ccccc2)c1` [24(g), 3-1H-Benzoimidazol-2-yl-6-(2-phenoxy-4-hydroxyphenyl)-1H-indazole] gave an IC50 (HCT-116) of over 5000 nM.

Work on `COc1cc(O)ccc1-c1ccc2c(-c3nc4ccc(S(N)(=O)=O)cc4[nH]3)n[nH]c2c1` [Reference Example 25(i), 3-(5-Aminosulfonyl-1H-benzoimidaxol-2-yl)-6-(2-methoxy-4-hydroxy-phenyl)-1H-indazole] yielded an IC50 (HCT-116) of over 5000 nM.

`C(=C\c1n[nH]c2cc(Sc3ccccc3)ccc12)/c1ccccc1` [8(c), 3-(E-styryl)-6-phenylsulfanyl-1H-indazole] gave a Ki (CDK2/Cyclin A complex) of over 100 µM, an IC50 ([3]; Homo sapiens, HUVEC, Table 1) of 280 nM and an inhibition at 10 µM [4] of 31%. For the same compound, the Ki (CDK4/Cyclin D3 complex [2]; [11]) was over 100 µM, the inhibition at 1 µM (LCK tyrosine kinase; [12]) was 34% and the inhibition at 10 µM (human FAK (FAKcd409)) was 15%.

For `O=C(Nc1cccc(Cl)c1)c1ccccc1Sc1ccc2c(/C=C\c3ccccn3)n[nH]c2c1` [Reference Example 33(h), 6-[2-(3-chlorophenylcarbamoyl)phenysulfanyl]-3-Z-[2-(pyridin-2-yl)ethenyl]-1H-indazole], the “isomerization under assay conditions” value [5] was “found to isomerize to Reference Example 33(d) under assay conditions”.

With `C(=C\c1n[nH]c2cc(Oc3ccccc3)ccc12)/c1ccccc1` [8(a), 3-(E-styryl)-6-phenoxy-1H-indazole] the Ki (CDK2/Cyclin A complex) was over 100 µM, the IC50 ([3]; Homo sapiens, HUVEC) was over 1000 nM and the inhibition at 10 µM [4] was 55%. It also gave a Ki (CDK4/Cyclin D3 complex [2]; [11]) of over 100 µM, an inhibition at 1 µM (LCK tyrosine kinase; [12]) of 43% and an inhibition at 10 µM (human FAK (FAKcd409)) of 3%.

Work on `C(=C\c1n[nH]c2cc(-c3ccccc3)ccc12)/c1ccccc1` [Reference Example 27(a), 6-phenyl-3-E-styryl-1H-indazole] yielded an inhibition at 10 µM [6] of 37%, an inhibition at 5 µM (CDK4/Cyclin D3 complex [7]) of 28% and an inhibition at 1 µM [8] of 71%.

For `O=C(c1cccc(NC(=O)c2ccccn2)c1)c1ccc2c(/C=C/c3ccccn3)n[nH]c2c1` [41 (aa)], the Ki ([1]; read-out: FLVK ** (Ki)) was 0.11 nM, the “FGF-P* (% inhibition)” value (human FGF-R1; [10]) was 37% and the “% remain (HLM, 2 h)” value (in vitro) was 100%. The IC50 ([3]; Table 1) was 1 nM, the AUCleast ([9]; ip, 25 mg/kg) was 6659 ng·h/mL and the T1/2 ([9]; ip, 25 mg/kg) was 2.1 h. For the same compound, the “Cmin (7 hr conc.)” value ([9]; po, 50 mg/kg, 7 h) was 5 ng/mL, the AUCleast ([9]; po, 50 mg/kg) was 289 ng·h/mL and the T1/2 ([9]; po, 50 mg/kg) was 0.9 h. The “Lck-P* (% inhibition)” value (LCK tyrosine kinase; [10]) was 49%.
